Data published in the NIST ThermoML archive (doi:10.1016/j.fluid.2012.09.037).

Assay: xn = mol fraction of the nth substance listed
Details: 373.2 K, Liquid; for mass density: Vibrating tube method; for viscosity: Moving piston method

CCCCCCCCCC [decane] + CCCCCCCCCCCCCC
x1 = 1
Details	mass density [kg/m3]
100 kPa	667.1
1000 kPa	668.4
2000 kPa	669.6
3000 kPa	670.9
4000 kPa	672.1
5000 kPa	673.4
6000 kPa	674.5
7000 kPa	675.7
8000 kPa	676.9
9000 kPa	678.1
10000 kPa	679.2

CCCCCCCCCC [decane] + O=C=O
Details	mass density [kg/m3]	viscosity [mPa·s]
1120 kPa, x2 = 0.075	669	0.35
1950 kPa, x2 = 0.124	671	0.33
3040 kPa, x2 = 0.192	672	0.29
4010 kPa, x2 = 0.246	674	0.27
5110 kPa, x2 = 0.313	676	0.25
6190 kPa, x2 = 0.367	677	0.22

CCCCCCCCCCCCCC [tetradecane] + CCCCCCCCCC
mass density [kg/m3]
Details	x2 = 0	x2 = 0.25	x2 = 0.5	x2 = 0.75
100 kPa	705.4	697.8	689.1	679.1
1000 kPa	706.5	698.8	690.3	680.3
2000 kPa	707.6	699.9	691.5	681.6
3000 kPa	708.6	701	692.6	682.7
4000 kPa	709.6	702	693.7	683.9
5000 kPa	710.7	703.1	694.8	685.1
6000 kPa	711.6	704.1	695.9	686.2
7000 kPa	712.6	705.2	697	687.3
8000 kPa	713.6	706.2	698	688.4
9000 kPa	714.6	707.2	699	689.5
10000 kPa	715.5	708.2	700.1	690.6

CCCCCCCCCCCCCC [tetradecane] + O=C=O
Details	mass density [kg/m3]	viscosity [mPa·s]
960 kPa, x2 = 0.07	707	0.6
2000 kPa, x2 = 0.135	709	0.55
2970 kPa, x2 = 0.198	710	0.51
4000 kPa, x2 = 0.261	711	0.47
4920 kPa, x2 = 0.307	713	0.44
5970 kPa, x2 = 0.358	714	0.41
